Test results: publication PMC4923880, “Urbilaterian origin of paralogous GnRH and corazonin neuropeptide signalling pathways” (Scientific Reports, 2016)
Square brackets hold non-standard residues; d marks the D form. Ends that are not written are not given here. Peptide text beside a SMILES is read from it. pGlu = O=C1CC[C@@H](C(=O)O)N1

Assays:
[1] = target: ArGnRHR (Asterias rubens, UniProt A0A1B0YGS0); assay: Bioluminescence (Ca2+) receptor activation assay, ArGnRHR in CHO-K1 cells with aequorin and Gα16; assay type: cell-based; conditions: for activation of ArGnRHR (bioluminescence response, in words) / activation of ArGnRHR by other GnRH/CRZ-type or starfish neuropeptides (in words): CHO-K1/aequorin/Gα16 cells; for activation of ArGnRHR (bioluminescence response, in words): concentrations 10^−4 M to 10^−14 M, peptide 2 over the same concentration range as peptide 1; for activation of ArGnRHR by other GnRH/CRZ-type or starfish neuropeptides (in words): 10 μM, Supplementary Figure S8
Text: (§1) ArGnRHR and ArCRZR were cloned as described previously[23] and the positions of the primers used are indicated in Supplementary Figures S1 and S2. Next, the ORF of ArGnRHR was amplified using the oligos 5′-aagcttCACCATGGCGACTACATC-3′ and 5′-ctcgagTTATACACATTTCTCAG-3′ and subcloned into the eukaryotic expression vector pcDNA 3.1+ (Invitrogen) that was cut with HindIII and XhoI; The ORF of ArCRZR was amplified using the oligos 5′- gatatcCACCATGAGTGTTCAAT-3′ and 5′-tctagaTCAGGTTGTTGTTGTGA-3′ and subcloned into pcDNA 3.1+ that was cut with EcoRV and XbaI. A partial Kozak translation initiation sequence (CACC) was also introduced in the upstream primer. Chinese hamster ovary (CHO)-K1 cells stably overexpressing the human Gα16 protein and mitochondrial targeted apo-aequorin were used as a heterologous expression system to functionally characterize the receptors. Cells were cultured, transfected and a bioluminescence assay performed as described previously. The A. rubens neuropeptides pQIHYKNPGWGPG-NH2 and HNTFTMGGQNRWKAG-NH2 were custom synthesized by PPR Ltd (Fareham, UK) and were tested as candidate ligands for ArGnRHR and ArCRZR at concentrations ranging from 10^−4 M to 10^−14 M. Ca^2+ responses were normalized to the total Ca^2+ response monitored after addition of Triton X-100 (0.1%). Dose–response data were determined as a % of the highest response (100% activation). EC50 values were calculated from dose–response curves based on at least three independent transfections (Prism 6.0). Other GnRH/CRZ-type neuropeptides (Drosophila AKH and Drosophila AKH) and other starfish neuropeptides (NGFFYamide, SALMFamide-1 and SALMFamide-2[16][24]) were also tested (at 10 μM) to assess the specificity of receptor activation.

[2] = tested on: cells transfected with an empty vector; assay: Bioluminescence assay, cells transfected with an empty vector (control); assay type: cell-based, Chinese hamster; conditions: data not shown
Text: as §1, with “Chinese hamster ovary (CHO)-K1 cells stably overexpressing the human Gα16 protein and mitochondrial targeted apo-aequorin were used as a heterologous expression system to functionally characterize the receptors. Cells were cultured, transfected and a bioluminescence assay performed as described previously.” left out, “Other GnRH/CRZ-type neuropeptides (Drosophila AKH and Drosophila AKH) and other starfish neuropeptides (NGFFYamide, SALMFamide-1 and SALMFamide-2[16][24]) were also tested (at 10 μM) to assess the specificity of receptor activation.” left out

[3] = target: ArCRZR (Asterias rubens, UniProt A0A1B0YGT7); assay: Bioluminescence (Ca2+) receptor activation assay, ArCRZR in CHO-K1 cells with aequorin and Gα16; assay type: cell-based; conditions: for activation of ArCRZR by other GnRH/CRZ-type or starfish neuropeptides (in words): 10 μM, Supplementary Figure S8
Text: as §1

[4] = tested on: GnRH-type receptors; conditions: two GnRH-type receptors; ref [14]; cited from earlier work
Text: (§2) It is not known, however, if this predicted mature peptide actually exists in B. floridae. […] Thus, it remains to be established whether or not distinct GnRH-type and CRZ-type signalling pa ...

[5] = tested on: CRZ-type receptor; conditions: one of two CRZ-type receptors; ref [14]; cited from earlier work
Text: as §2

ArGnRHR, sequence (A0A1B0YGS0 entry or part of it): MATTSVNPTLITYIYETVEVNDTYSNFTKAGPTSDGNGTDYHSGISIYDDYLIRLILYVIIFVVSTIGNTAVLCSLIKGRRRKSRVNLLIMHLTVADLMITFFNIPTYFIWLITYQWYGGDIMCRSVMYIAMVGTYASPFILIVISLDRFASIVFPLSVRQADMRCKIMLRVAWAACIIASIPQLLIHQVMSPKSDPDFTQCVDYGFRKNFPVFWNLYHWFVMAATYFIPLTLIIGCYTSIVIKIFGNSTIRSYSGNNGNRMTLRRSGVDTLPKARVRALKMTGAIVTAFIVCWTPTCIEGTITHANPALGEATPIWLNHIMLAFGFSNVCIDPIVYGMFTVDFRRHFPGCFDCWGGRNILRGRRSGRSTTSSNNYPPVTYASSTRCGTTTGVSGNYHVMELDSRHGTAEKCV
ArCRZR, sequence (A0A1B0YGT7 entry or part of it): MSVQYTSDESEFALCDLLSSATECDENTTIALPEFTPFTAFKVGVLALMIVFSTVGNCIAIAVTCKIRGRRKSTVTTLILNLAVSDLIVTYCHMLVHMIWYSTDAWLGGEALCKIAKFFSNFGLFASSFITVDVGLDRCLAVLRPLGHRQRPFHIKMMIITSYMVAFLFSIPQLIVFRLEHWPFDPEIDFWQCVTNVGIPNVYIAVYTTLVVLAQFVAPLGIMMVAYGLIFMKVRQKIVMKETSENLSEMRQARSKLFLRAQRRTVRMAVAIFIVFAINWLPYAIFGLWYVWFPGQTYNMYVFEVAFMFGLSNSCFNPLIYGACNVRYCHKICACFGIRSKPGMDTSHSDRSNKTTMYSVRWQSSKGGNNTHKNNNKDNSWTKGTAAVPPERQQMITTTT

Compound: CC[C@H](C)[C@H](NC(=O)[C@@H]1CCC(=O)N1)C(=O)N[C@@H](Cc1c[nH]cn1)C(=O)N[C@@H](Cc1ccc(O)cc1)C(=O)N[C@@H](CCCCN)C(=O)N[C@@H](CC(N)=O)C(=O)N1CCC[C@H]1C(=O)NCC(=O)N[C@@H](Cc1c[nH]c2ccccc12)C(=O)NCC(=O)N1CCC[C@H]1C(=O)NCC(N)=O [peptide 1] ([pGlu]IHYKNPGWGPG-NH2)
- EC50 [1]: 0.603 nM
- activation of ArGnRHR (bioluminescence response, in words) [1]: dose-dependent activation
- activation of ArGnRHR (bioluminescence response, in words) ([1]; listed as Peptide 1): dose-dependent stimulation of a bioluminescence response
- activation of ArGnRHR (bioluminescence response, in words) ([1]; listed as pQIHYKNPGWGPG-NH2): specifically activates an A. rubens GnRH-type receptor
- response of cells transfected with an empty vector (in words) [2]: Neither peptide 1 nor peptide 2 elicited any response
- activation of ArCRZR (bioluminescence response, in words) ([3]; CHO-K1/aequorin/Gα16 cells, concentrations 10^−4 M to 10^−14 M, peptide 1 over a similar concentration range as peptide 2): no effect

Compound: CSCC[C@H](NC(=O)[C@@H](NC(=O)[C@H](Cc1ccccc1)NC(=O)[C@@H](NC(=O)[C@H](CC(N)=O)NC(=O)[C@@H](N)Cc1c[nH]cn1)[C@@H](C)O)[C@@H](C)O)C(=O)NCC(=O)NCC(=O)N[C@@H](CCC(N)=O)C(=O)N[C@@H](CC(N)=O)C(=O)N[C@@H](CCCNC(=N)N)C(=O)N[C@@H](Cc1c[nH]c2ccccc12)C(=O)N[C@@H](CCCCN)C(=O)N[C@@H](C)C(=O)NCC(N)=O [peptide 2] (H-HNTFTMGGQNRWKAG-NH2)
- EC50 [3]: 115 nM

Compound: CRZ: other GnRH/CRZ-type peptide (Drosophila corazonin) (QTFQYSRGWTN; ends and bridges not checked; UniProt Q26377 20-30, looked up)
- activation of ArGnRHR by other GnRH/CRZ-type or starfish neuropeptides (in words) [1]: Neither receptor was activated
- activation of ArCRZR by other GnRH/CRZ-type or starfish neuropeptides (in words) ([3]; CHO-K1/aequorin/Gα16 cells): Neither receptor was activated

Compound: Drosophila AKH: other GnRH/CRZ-type peptide (Drosophila adipokinetic hormone) (QLTFSPDW; ends and bridges not checked; UniProt P61855 23-30, looked up)
- activation of ArGnRHR by other GnRH/CRZ-type or starfish neuropeptides (in words) [1]: Neither receptor was activated
- activation of ArCRZR by other GnRH/CRZ-type or starfish neuropeptides (in words) ([3]; CHO-K1/aequorin/Gα16 cells): Neither receptor was activated

Compound: NGFFYamide
- activation of ArGnRHR by other GnRH/CRZ-type or starfish neuropeptides (in words) [1]: Neither receptor was activated
- activation of ArCRZR by other GnRH/CRZ-type or starfish neuropeptides (in words) ([3]; CHO-K1/aequorin/Gα16 cells): Neither receptor was activated

Compound: pQILCARAFTYTHTW-NH2 [candidate neuropeptide in the cephalochordate Branchiostoma floridae]
- activation of B. floridae GnRH-type receptors (in words) [4]: neither of two GnRH-type receptors
- activation of B. floridae CRZ-type receptors (in words) [5]: activates one of two CRZ-type receptors
